Experimental findings from article PMC2935290 (Journal of immunology (Baltimore, Md. : 1950), 2010) are described below.

Substitutions are numbered along the chain they refer to. Where a SMILES comes first, the peptide text is derived from it. Where no end group is shown, it is not given here.

Experiment [1] concerns the target T1, HLA-DPB1*0402 (Homo sapiens, UniProt P04440+P20036, A65V/A84D/A85E/L207M).
T1 sequence (P04440 30-258 A65V/A84D/A85E): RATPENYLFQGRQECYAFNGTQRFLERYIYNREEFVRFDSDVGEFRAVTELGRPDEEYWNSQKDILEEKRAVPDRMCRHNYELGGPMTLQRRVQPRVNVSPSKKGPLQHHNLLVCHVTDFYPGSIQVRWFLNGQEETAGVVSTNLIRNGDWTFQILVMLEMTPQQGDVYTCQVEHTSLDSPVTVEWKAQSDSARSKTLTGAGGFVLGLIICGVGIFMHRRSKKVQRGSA
T1 sequence (P20036 29-260): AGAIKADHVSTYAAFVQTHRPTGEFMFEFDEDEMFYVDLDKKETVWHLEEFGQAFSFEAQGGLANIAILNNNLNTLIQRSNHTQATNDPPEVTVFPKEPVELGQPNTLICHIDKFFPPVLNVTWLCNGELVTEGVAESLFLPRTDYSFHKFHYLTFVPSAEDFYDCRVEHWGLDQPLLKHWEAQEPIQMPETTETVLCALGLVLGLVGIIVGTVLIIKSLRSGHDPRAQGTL
As to the kind of experiment: biochemical. It counts as binding.

For experiment [2], the target named is T2, HLA-DPB1*0201 (Homo sapiens, UniProt P04440+P20036, A65V/A84D/A85E/K98E).
T2 sequence (P04440 30-258 A65V/A84D/A85E/K98E): T1 sequence (P04440 30-258 A65V/A84D/A85E) with K69E
T2 sequence (P20036 29-260): T1 sequence (P20036 29-260)
Kind of experiment: biochemical. Type of experiment: binding.

For the compound RSQPGLCNMYKDSHHPARTA, the values for the half-inhibitory concentration (IC50) in experiment [1] and in experiment [2] were 7780 nM and 4590 nM, respectively.
For FFLLTRILTIPQSLD, the IC50 is 1.2 nM in experiment [1] and 0.3 nM in experiment [2].
In experiment [1], `CC[C@H](C)[C@H](NC(=O)[C@@H](N)Cc1c[nH]c2ccccc12)C(=O)N[C@H](C(=O)N[C@@H](CCC(N)=O)C(=O)N[C@@H](CS)C(=O)N[C@@H](Cc1ccccc1)C(=O)N[C@@H](CC(C)C)C(=O)N1CCC[C@H]1C(=O)N[C@H](C(=O)N[C@@H](Cc1ccccc1)C(=O)N[C@@H](CC(C)C)C(=O)N[C@@H](C)C(=O)N[C@@H](CCC(N)=O)C(=O)N1CCC[C@H]1C(=O)N1CCC[C@H]1C(=O)N[C@@H](CO)C(=O)NCC(=O)N[C@@H](CCC(N)=O)C(=O)N[C@@H](CCCNC(=N)N)C(=O)N[C@@H](CCCNC(=N)N)C(=O)O)C(C)C)[C@@H](C)O` displayed a concentration for half-maximal inhibition (IC50) of 25 nM.
Consider `CC(C)C[C@H](NC(=O)[C@@H](NC(=O)[C@H](CC(N)=O)NC(=O)[C@H](Cc1ccccc1)NC(=O)[C@H](CC(C)C)NC(=O)[C@H](CO)NC(=O)[C@H](Cc1c[nH]c2ccccc12)NC(=O)[C@@H](NC(=O)[C@@H](NC(=O)[C@H](Cc1c[nH]cn1)NC(=O)[C@H](CC(=O)O)NC(=O)[C@@H]1CCCN1C(=O)[C@@H](N)C(C)C)C(C)C)C(C)C)[C@@H](C)O)C(=O)O`, for which the figures for the IC50 in experiment [1] and in experiment [2] were 8.4 nM and 1.1 nM, respectively.
For the compound `CC[C@H](C)[C@H](NC(=O)[C@H](Cc1c[nH]c2ccccc12)NC(=O)[C@H](CCSC)NC(=O)[C@H](CC(C)C)NC(=O)[C@H](CC(C)C)NC(=O)[C@@H](N)CO)C(=O)N[C@H](C(=O)N[C@@H](CCC(N)=O)C(=O)N[C@@H](CS)C(=O)N[C@@H](Cc1ccccc1)C(=O)N[C@@H](CC(C)C)C(=O)N1CCC[C@H]1C(=O)N[C@H](C(=O)O)C(C)C)[C@@H](C)O`, the half-maximal inhibitory concentration (IC50) in experiment [1] came out at 6.1 nM; in experiment [2] it was 1.3 nM.
For the compound `CC(C)C[C@H](NC(=O)[C@H](CO)NC(=O)[C@H](CCC(N)=O)NC(=O)[C@@H](N)CC(C)C)C(=O)N[C@H](C(=O)N[C@@H](CO)C(=O)N[C@@H](CCC(N)=O)C(=O)N[C@@H](Cc1ccc(O)cc1)C(=O)N[C@@H](Cc1ccccc1)C(=O)N[C@@H](CCC(N)=O)C(=O)N[C@H](C(=O)N[C@H](C(=O)N[C@@H](C)C(=O)N[C@@H](CC(=O)O)C(=O)N[C@@H](Cc1ccc(O)cc1)C(=O)O)C(C)C)[C@@H](C)O)C(C)C`, the midpoint of inhibition in experiment [2], the IC50, lay at 2.7 nM.
On to INEPTAAAIAYGLDR, for which the IC50 was 11600 nM in experiment [1] and 4150 nM in experiment [2].
In experiment [2], `CC[C@H](C)[C@H](NC(=O)[C@H](C)NC(=O)[C@H](CS)NC(=O)[C@H](C)NC(=O)[C@H](CC(C)C)NC(=O)[C@@H](NC(=O)CNC(=O)[C@H](CC(=O)O)NC(=O)[C@H](CC(=O)O)NC(=O)CNC(=O)[C@@H](N)CCSC)C(C)C)C(=O)N[C@@H](C)C(=O)N[C@H](C(=O)N[C@@H](Cc1c[nH]cn1)C(=O)N[C@@H](C)C(=O)N[C@@H](CCCCN)C(=O)N[C@H](C(=O)N[C@@H](CCCNC(=N)N)C(=O)N[C@@H](CC(=O)O)C(=O)O)[C@@H](C)CC)[C@@H](C)O` gave an IC50 of 8790 nM.
In the case of `CC[C@H](C)[C@H](NC(=O)[C@H](CC(=O)O)NC(=O)[C@@H](N)CCCCN)C(=O)N[C@@H](CC(C)C)C(=O)N[C@@H](CCC(=O)O)C(=O)N[C@@H](CC(=O)O)C(=O)N[C@@H](CCC(=O)O)C(=O)N[C@@H](CCCNC(=N)N)C(=O)N[C@@H](C)C(=O)N[C@@H](C)C(=O)N[C@H](C(=O)N[C@@H](CC(=O)O)C(=O)N[C@H](C(=O)N[C@@H](Cc1ccc(O)cc1)C(=O)N[C@@H](CS)C(=O)O)[C@@H](C)O)C(C)C`, the IC50 in experiment [1] stood at 4200 nM; in experiment [2] it was 10500 nM.
For `CC[C@H](C)[C@H](NC(=O)[C@@H](N)CCCCN)C(=O)N[C@@H](Cc1ccccc1)C(=O)NCC(=O)N[C@@H](CO)C(=O)N[C@@H](CC(C)C)C(=O)N[C@@H](C)C(=O)N[C@@H](Cc1ccccc1)C(=O)N[C@@H](CC(C)C)C(=O)N1CCC[C@H]1C(=O)N[C@@H](CCC(=O)O)C(=O)N[C@@H](CO)C(=O)N[C@@H](Cc1ccccc1)C(=O)N[C@@H](CC(=O)O)C(=O)NCC(=O)N[C@@H](CC(=O)O)C(=O)N1CCC[C@H]1C(=O)N[C@@H](C)C(=O)O` the same measures were 143 nM and 9 nM.
The matching figures for NNKYAASSYLSLTPE: 42 nM and 2.4 nM.
For EEVDMTPADALDDFD the same measures were 26000 nM and 5800 nM.
`CC(C)C[C@H](NC(=O)[C@@H](NC(=O)[C@H](Cc1c[nH]cn1)NC(=O)[C@H](CO)NC(=O)[C@H](Cc1ccccc1)NC(=O)[C@H](CO)NC(=O)CNC(=O)CNC(=O)[C@H](CC(C)C)NC(=O)[C@H](Cc1ccc(O)cc1)NC(=O)[C@H](CCCNC(=N)N)NC(=O)[C@H](Cc1ccc(O)cc1)NC(=O)[C@H](CC(C)C)NC(=O)[C@@H]1CCCN1)C(C)C)C(=O)O`: the results for the IC50 in experiment [1] and in experiment [2] were 149 nM and 13 nM, respectively.
For `CC[C@H](C)[C@H](NC(=O)[C@H](C)NC(=O)[C@H](CC(=O)O)NC(=O)[C@H](CCCCN)NC(=O)[C@H](CC(C)C)NC(=O)[C@@H](NC(=O)[C@H](CCC(=O)O)NC(=O)[C@H](C)NC(=O)[C@H](Cc1ccccc1)NC(=O)[C@@H](NC(=O)[C@H](Cc1c[nH]cn1)NC(=O)[C@@H](NC(=O)[C@H](CCC(N)=O)NC(=O)[C@H](CC(C)C)NC(=O)[C@H](Cc1ccccc1)NC(=O)[C@@H](N)C(C)C)[C@@H](C)O)[C@@H](C)CC)C(C)C)C(=O)N[C@@H](CCCCN)C(=O)N[C@@H](CC(=O)O)C(=O)N[C@@H](CC(C)C)C(=O)O` the same measures were 5.6 nM and 32 nM.
For CDGERPTLAFLQDVM the same measures were 15200 nM and 32800 nM.
The compound DVKFPGGGQIVGGVYLLPRR had a concentration for half-maximal inhibition (IC50) in experiment [1] of 33 nM.
Consider `CSCC[C@H](NC(=O)[C@H](CCSC)NC(=O)[C@@H](N)CCCNC(=N)N)C(=O)N[C@@H](CCC(=O)O)C(=O)N[C@@H](Cc1ccc(O)cc1)C(=O)NCC(=O)N[C@H](C(=O)N[C@H](C(=O)N[C@@H](CCSC)C(=O)N[C@H](C(=O)N[C@@H](CO)C(=O)N[C@@H](Cc1ccc(O)cc1)C(=O)N[C@@H](CCC(N)=O)C(=O)N1CCC[C@H]1C(=O)N[C@@H](CC(C)C)C(=O)O)C(C)C)[C@@H](C)O)[C@@H](C)O`, for which the values for the IC50 in experiment [1] and in experiment [2] were 1310 nM and 725 nM, respectively.
The matching figures for `CC[C@H](C)[C@H](NC(=O)[C@H](Cc1ccc(O)cc1)NC(=O)[C@H](CCC(=O)O)NC(=O)[C@H](Cc1ccccc1)NC(=O)[C@H](C)NC(=O)[C@H](CCC(N)=O)NC(=O)[C@H](CO)NC(=O)[C@@H]1CCCN1C(=O)[C@@H](N)CC(C)C)C(=O)N[C@@H](CC(C)C)C(=O)N[C@@H](Cc1ccc(O)cc1)C(=O)N[C@@H](CC(N)=O)C(=O)N[C@@H](CCCCN)C(=O)NCC(=O)O`: 9.6 nM and 1 nM.
For the compound LTGYSLFQKEKMVLN, in experiment [2], the IC50 was 180 nM.
As for SDVGEFRAVTELG, the IC50 in experiment [1] was determined as 4050 nM; in experiment [2], 619 nM.
For `CC[C@H](C)[C@H](NC(=O)[C@H](CC(=O)O)NC(=O)[C@H](CC(=O)O)NC(=O)[C@H](Cc1ccccc1)NC(=O)[C@H](C)NC(=O)[C@H](CCCCN)NC(=O)[C@H](CCC(N)=O)NC(=O)[C@@H](NC(=O)[C@H](CCCCN)NC(=O)[C@@H](N)CCC(=O)O)[C@@H](C)CC)C(=O)N[C@@H](C)C(=O)N[C@@H](CCCCN)C(=O)N[C@@H](Cc1ccc(O)cc1)C(=O)N[C@@H](Cc1ccccc1)C(=O)N[C@@H](CO)C(=O)N[C@@H](CCCCN)C(=O)O` the same measures were 506 nM and 75 nM.
Consider FDRSTKVIDFHYPNE, for which half-maximal inhibition in experiment [1] (IC50) was put at 30400 nM.
For `CC[C@H](C)[C@H](NC(=O)[C@H](CO)NC(=O)[C@H](Cc1ccc(O)cc1)NC(=O)[C@H](C)NC(=O)[C@H](CS)NC(=O)[C@H](CC(C)C)NC(=O)[C@H](CC(C)C)NC(=O)[C@H](CS)NC(=O)[C@@H](N)CC(=O)O)C(=O)N[C@@H](CCC(=O)O)C(=O)N[C@@H](Cc1ccccc1)C(=O)NCC(=O)N[C@H](C(=O)N[C@@H](CC(N)=O)C(=O)N[C@H](C(=O)N[C@@H](CO)C(=O)N[C@@H](CCCCN)C(=O)N[C@@H](CCC(=O)O)C(=O)N[C@@H](Cc1c[nH]cn1)C(=O)N[C@@H](CC(=O)O)C(=O)O)[C@@H](C)CC)[C@@H](C)O` (H-DCLLCAYSIEFGTNISKEHD-OH), the half-inhibitory concentration (IC50) turned out to be 232 nM in experiment [1] and 343 nM in experiment [2].
The matching figures for `CC[C@H](C)[C@H](NC(=O)[C@H](CO)NC(=O)[C@H](CCC(=O)O)NC(=O)[C@H](C)NC(=O)[C@H](CCC(=O)O)NC(=O)[C@H](CCSC)NC(=O)[C@H](CCC(N)=O)NC(=O)[C@H](CCCCN)NC(=O)[C@@H](NC(=O)[C@H](CC(=O)O)NC(=O)[C@H](CCC(=O)O)NC(=O)[C@H](CCSC)NC(=O)[C@H](C)NC(=O)[C@H](CCC(N)=O)NC(=O)[C@H](CC(=O)O)NC(=O)[C@H](CCC(=O)O)NC(=O)[C@@H](N)[C@@H](C)O)[C@@H](C)CC)C(=O)N[C@@H](CO)C(=O)O`: 2470 nM and 4770 nM.
Consider TPTEKDEYCARVNH, for which the IC50 in experiment [1] came to 14000 nM.
As for RELWWVFYAAD, 291 nM corresponded to half-maximal inhibition in experiment [2] (IC50).

One may read the IC50 as the midpoint of a concentration-inhibition curve. Lower therefore signals higher potency.
